Results on four compounds are retold here after patent publication US20140141974A1, “Fungicidal phenylalkyl-substituted 2-[2-chloro-4-(4-chloro-phenoxy)-phenyl]-1-[1,2,4]triazol-1-yl-ethanol compounds” (BASF SE, priority 2011, published 2014).

One test has as its system Phakopsora pachyrhizi. Description: Protective control of soy bean rust on soy beans (Use Example 4, greenhouse comparative test). The class given is in vivo. As to conditions: soy bean seedlings, inoculated 1 day after spraying, untreated control 80. As for the experimental part:
The spray solutions were prepared in several steps:
The stock solutions were prepared: a mixture of acetone and/or dimethylsulfoxide and the wetting agent/emulsifier Wettol, which is based on ethoxylated alkylphenoles, in a relation (volume) solvent-emulsifier of 99 to 1 was added to 25 mg of the compound to give a total of 5 ml. Water was then added to total volume of 100 ml.
This stock solution was diluted with the described solvent-emulsifier-water mixture to the given concentration.
Leaves of pot-grown soy bean seedlings were sprayed to run-off with an aqueous suspension, containing the concentration of active ingredient or their mixture as described below. The plants were allowed to air-dry. The trial plants were cultivated for 1 day in a greenhouse chamber at 23-27° C. and a relative humidity between 60 and 80%. Then the plants were inoculated with spores of Phakopsora pachyrhizi. To ensure the success the artificial inoculation, the plants were transferred to a humid chamber with a relative humidity of about 95% and 20 to 24° C. for 24 h. The trial plants were cultivated for fourteen days in a greenhouse chamber at 23-27° C. and a relative humidity between 60 and 80%. The extent of fungal attack on the leaves was visually assessed as % diseased leaf area.

Test [1] deals with Puccinia recondita (Puccrt K4). The test can be described thus: Curative control of brown rust on wheat (Use Example 5, greenhouse comparative test). The class given is in vivo. As to conditions: wheat seedlings, sprayed after inoculation, untreated control 90. As for the experimental part: The spray solutions were prepared in several steps: The stock solutions were prepared: a mixture of acetone and/or dimethylsulfoxide and the wetting agent/emulsifier Wettol, which is based on ethoxylated alkylphenoles, in a relation (volume) solvent-emulsifier of 99 to 1 was added to 25 mg of the compound to give a total of 5 ml. Water was then added to total volume of 100 ml. This stock solution was diluted with the described solvent-emulsifier-water mixture to the given concentration. The first two developed leaves of pot-grown wheat seedling were dusted with spores of Puccinia recondita. To ensure the success the artificial inoculation, the plants were transferred to a humid chamber without light and a relative humidity of 95 to 99% and 20 to 24° C. for 24 h. The next day the plants were cultivated for 3 days in a greenhouse chamber at 20-24° C. and a relative humidity between 65 and 70%. Then the plants were sprayed to run-off with an aqueous suspension, containing the concentration of active ingredient or their mixture as described below. The plants were allowed to air-dry. Then the trial plants were cultivated for 8 days in a greenhouse chamber at 20-24° C. and a relative humidity between 65 and 70%. The extent of fungal attack on the leaves was visually assessed as % diseased leaf area.

Each structure is given as a SMILES string.

In the case of `OC(Cn1cncn1)(c1ccccc1)c1ccc(Oc2ccc(Cl)cc2)cc1Cl` (stereo not drawn) [Compound I-1], the “Disease (%) at 150 ppm” value in the test with Phakopsora pachyrhizi was 1%.
Regarding `OC(C#Cc1ccccc1)(Cn1cncn1)c1ccc(Oc2ccc(Cl)cc2)cc1Cl` (stereo not drawn) [Compound I-4], the “Disease (%) at 63 ppm” value in test [1] was 20%.
In the case of `OC(/C=C/c1ccccc1)(Cn1cncn1)c1ccc(Oc2ccc(Cl)cc2)cc1Cl` (stereo not drawn) [Compound V20, reference compound], the “Disease (%) at 150 ppm” value in the test on Phakopsora pachyrhizi was found to be 50%. For the same compound, the “Disease (%) at 63 ppm” value in test [1] was found to be 55%.
Turning to `OC(Cc1ccccc1)(Cn1cncn1)c1ccc(Oc2ccc(Cl)cc2)cc1Cl` (stereo not drawn) [Compound I-2, 2-[2-chloro-4-(4-chloro-phenoxy)-phenyl]-1-phenyl-3-[1,2,4]triazol-1-yl-propan-2-ol], in the test on Phakopsora pachyrhizi, the “Disease (%) at 150 ppm” value is listed as 3%. Further, the “Disease (%) at 63 ppm” value in test [1] was found to be 35%.
